Reference: patent US9339491B2, “Use of a pyrazole derivative in the treatment of acute exacerbations of chronic obstructive pulmonary disease” (Mereo BioPharma 1 Limited, priority 2012, dated 2016)

What was measured:
[1] = system: patients who have an acute COPD exacerbation; experiment: Clinical study in acute COPD exacerbation: patient disposition / discontinuation; type: in vivo; settings: for Reason for discontinuation: Death: 2nd interim, 30 days of follow-up, Compound A N = 31, Prednisone N = 30; for Reason for discontinuation: Adverse Events: human, in vivo
Description: (§1) An exploratory, randomized, double-blind, placebo controlled, multi-center study to assess the efficacy, safety and tolerability of a single 75 mg dose of 3-[5-amino-4-(3-cyano-benzoyl)-pyrazol-1-yl]-N-cyclopropyl-4-methylbenzamide administered orally to patients who have an acute COPD exacerbation
(§2) The efficacy, safety and tolerability of a single 75 mg dose of 3-[5-amino-4-(3-cyano-benzoyl)-pyrazol-1-yl]-N-cyclopropyl-4-methylbenzamide (Compound A) administered orally to patients who have an acute COPD exacerbation was conducted.
(§3) 90 patients were randomized 1:1:1 to three treatment arms.
(§4) =single 75 mg dose of Compound A on day 1+prednisone placebo×10 days
(§5) =single dose of Compound A placebo on day 1+prednisone placebo×10 days
(§6) =single dose of Compound A placebo on day 1+40 mg oral prednisone […]×10 days
(§7) =doxycycline 100 mg dose×10 days or a non-macrolide antibiotic concurrent with local prescribing antibiotic guidelines.
(§8) Present data (at 2nd interim) includes total of 91 randomized patients with 30 days of follow-up.

[2] = system: patients who have an acute COPD exacerbation; experiment: Clinical study in acute COPD exacerbation: efficacy measured by FEV1; type: in vivo, human; settings: for FEV1 change from baseline, Difference, Compound A v prednisone: single 75 mg oral Compound A v 40 mg oral prednisone x 10 days; for FEV1 change from baseline, Difference, Compound A v placebo: single 75 mg oral dose of Compound A, ANCOVA repeated measurements
Description: “Forced Expiratory Volume in One Second” or “FEV1” as used herein is the volume of air that can forcibly be blown out in one second, after full inspiration, which is measured by a spirometer. It is a measure of lung function or performance. Average values for FEV1 in healthy people depend mainly on sex and age. Values of between 80% and 120% of the average value are considered normal.
as §1, §2
Primary objective: Assess the efficacy of a single 75 mg dose of Compound A in COPD patients presenting with an exacerbation as measured by the improvement in FEV1 over the first 5 days of treatment relative to placebo.
as §3, §4, §5, §6, §7
Visits at Days 3, 5 and 14 and follow-up visits 30 and 90 days. End of study visit at 6 months.
as §8
Inclusion criteria for the study population were: • Males/females ≧40 to ≦80 years • GOLD stages 2 to 4 • Smoking history at least 10 pack years • Investigator defined COPD exacerbation
Exclusion criteria for the study population were: • Arterial blood pH <7.26 at randomization • History or presence of clinically uncontrolled left heart failure • Clinical or radiological evidence of pneumonia • Long term Oxygen >15 hours a day • History of clinically significant ECG abnormalities • History or presence of impaired renal function • Use of macrolide antibiotics within 48 hours of randomization
(§9) Key efficacy endpoints: • FEV1 improvement from baseline at Day 5 • BORG Scores • EXACT PRO: • Recovery defined as reduction in EXACT score ≧9 points benchmarked against the maximum observed score (MOV: highest EXACT score using a 3-day rolling average) over the 14 day period following onset. • Time to recovery • Severity • Maximum severity—highest exact score over 30 days • Total severity—area under the curve from onset (i.e. Day 1) to recovery/Day 30 whichever comes first based on total exact score. • Duration of exacerbation (days from onset to recovery/Day 30) • Frequency of patients who recovered at Day 30 • Treatment failure: • Patients who were treated with oral corticosteroids, admitted to hospital to COPD related symptoms, changed in antibiotic therapy relating to COPD, or in the attending physicians opinion needed treatment for a further exacerbation.
FEV1 change from baseline analysed with ANCOVA ([…]) model for repeated measurements. Estimated between patient standard deviation—200 ml.

[3] = system: patients who have an acute COPD exacerbation; experiment: Clinical study in acute COPD exacerbation: treatment failure composite endpoint; type: in vivo, human; settings: retreatment with antibiotics, oral steroids, death, hospitalization or treatment indicating another exacerbation
Description: as §1, §2, §3, §4, §5, §6
=doxycycline 100 mg dose×10 days or a non-macrolide antibiotic concurrent with local prescribing antibiotic guidelines. […]

[4] = system: patients who have an acute COPD exacerbation; experiment: Clinical study in acute COPD exacerbation: dyspnea by Borg CR 10 scores; type: in vivo, human; design: AUC[days 2-14] in Borg CR 10 scores, Difference LS mean, Compound A - prednisone / AUC[days 2-14] in Borg CR 10 scores (adjusted for Day 1), LS mean / AUC[days 2-14] in Borg CR 10 scores, Difference LS mean, treatment - placebo: unit not given beside the values; settings: for AUC[days 2-14] in Borg CR 10 scores (adjusted for Day 1), LS mean: per treatment arm; for AUC[days 2-14] in Borg CR 10 scores, Difference LS mean, treatment - placebo: versus placebo
Description: “BORG Score” as used herein refers to a measurement of dyspnea in accordance with the Borg scale. On that scale 0 represents no breathlessness at all and 10 represents maximum breathlessness.
as §1, §2, §3, §4, §5, §6, §7, §9
LS is an abbreviation for least squares.

[5] = system: patients who have an acute COPD exacerbation; experiment: Clinical study in acute COPD exacerbation: safety and tolerability (adverse events); type: in vivo, human
Description: as §1, §2
Secondary objectives: Safety and tolerability, patient reported outcomes, and time to next exacerbation.
as §3, §4, §5, §6, §7
Initial hospitalization for COPD exacerbation at baseline was not recorded as a serious adverse event (SAE). Only subsequent admissions were recorded. […] No rash was noted. No unusual events or imbalances between treatment arms were noted.

[6] = Compound A N = 31, Prednisone N = 30

Question: Which results are given for `Cc1ccc(C(=O)NC2CC2)cc1-n1ncc(C(=O)c2cccc(C#N)c2)c1N` [Compound A, 3-[5-Amino-4-(3-cyanobenzoyl)-pyrazol-1-yl]-N-cyclopropyl-4-methylbenzamide]?
Answer: Reason for discontinuation: Death [1]: 0 (0.0) n (%); Reason for discontinuation: Adverse Events ([1]; 30 days): 0 (0.0) n (%); Improvement in FEV1 versus placebo and prednisone ([2]; Day 3): greater improvement in FEV1; FEV1 change from baseline, Difference, Compound A v prednisone ([2]; Day 3): 102.28 mL; FEV1 change from baseline, Difference, Compound A v placebo ([2]; Day 3): 119.59 mL; FEV1 change from baseline, Difference, Compound A v prednisone ([2]; Day 5): 109.15 mL; FEV1 change from baseline, Difference, Compound A v placebo ([2]; Day 5): 46.56 mL; Patients who responded with >100 ml improvement (FEV1) ([2]; day 3, single 75 mg oral dose): 60%; Treatment failures (composite endpoint) [3]: 0 patients; Breathlessness over 14 days compared with prednisone ([4]; over 14 days): on average less breathless; AUC[days 2-14] in Borg CR 10 scores (adjusted for Day 1), LS mean ([4]; days 2-14): 3.25; AUC[days 2-14] in Borg CR 10 scores, Difference LS mean, treatment - placebo ([4]; days 2-14, adjusted for Day 1): −0.23; AUC[days 2-14] in Borg CR 10 scores, Difference LS mean, Compound A - prednisone ([4]; versus prednisone, days 2-14, adjusted for Day 1): −0.36; COPD adverse events ([5]; human, in vivo): No COPD adverse events were observed; Number of subjects with AE: Abdominal pain upper ([5]; human, in vivo): 1 (3.2) n (%); Number of subjects with AE: Any AE ([5]; human, in vivo): 8 (25.8) n (%); Number of subjects with AE: COPD ([5]; human, in vivo): 0 (0.0) n (%); Number of subjects with AE: Diarrhoea ([5]; human, in vivo): 1 (3.2) n (%); Number of subjects with AE: Dizziness ([5]; human, in vivo): 2 (6.5) n (%); Number of subjects with AE: Headache ([5]; human, in vivo): 1 (3.2) n (%); Number of subjects with AE: Nasopharyngitis ([5]; human, in vivo): 1 (3.2) n (%); Number of subjects with AE: Nausea ([5]; human, in vivo): 0 (0.0) n (%); Number of subjects with AE: Occult blood ([5]; human, in vivo): 1 (3.2) n (%); Number of subjects with AE: Vertigo ([5]; human, in vivo): 1 (3.2) n (%); Safety and tolerability ([5]; human, in vivo): safe and well tolerated

Question: Which “Reason for discontinuation: Death” value [1] does the source give for `C[C@]12C=CC(=O)C=C1CC[C@@H]1[C@@H]2C(=O)C[C@@]2(C)[C@H]1CC[C@]2(O)C(=O)CO` [Prednisone, prednisone, reference compound] here?
Answer: Its value is 2 (6.7) n (%).

Question: What about the “Reason for discontinuation: Adverse Events” value [1] of the same molecule?
Answer: The value was 0 (0.0) n (%).

Question: What about the “AUC[days 2-14] in Borg CR 10 scores (adjusted for Day 1), LS mean” value ([4]; days 2-14) of the same molecule?
Answer: Its value is 3.61.

Question: What about the “AUC[days 2-14] in Borg CR 10 scores, Difference LS mean, treatment - placebo” value ([4]; days 2-14, adjusted for Day 1) of the same molecule?
Answer: Its value is 0.13.

Question: And the “Number of subjects with AE: Abdominal pain upper” value [5, 6]?
Answer: Its value is 1 (3.3) n (%).

Question: What about the “Number of subjects with AE: Any AE” value [5, 6] of the same molecule?
Answer: Its value is 12 (40.0) n (%).

Question: And the “Number of subjects with AE: COPD” value [5, 6]?
Answer: The value was 5 (16.7) n (%).

Question: And the “Number of subjects with AE: Diarrhoea” value [5, 6]?
Answer: Its value is 0 (0.0) n (%).

Question: What about the “Number of subjects with AE: Dizziness” value [5, 6] of the same molecule?
Answer: Its value is 0 (0.0) n (%).

Question: What about the “Number of subjects with AE: Headache” value [5, 6] of the same molecule?
Answer: Its value is 3 (10.0) n (%).

Question: And the “Number of subjects with AE: Nasopharyngitis” value [5, 6]?
Answer: Its value is 1 (3.3) n (%).

Question: What about the “Number of subjects with AE: Nausea” value [5, 6] of the same molecule?
Answer: The value was 2 (6.7) n (%).

Question: What about the “Number of subjects with AE: Occult blood” value [5, 6] of the same molecule?
Answer: Its value is 1 (3.3) n (%).

Question: What about the “Number of subjects with AE: Vertigo” value [5, 6] of the same molecule?
Answer: The value was 1 (3.3) n (%).
